“And” between values parts separate entries of the source, which are not always exact repeats. Equal entries are not always repeated.
What was measured:
hCA I = hCA I (Homo sapiens, UniProt P00915); test: hCA I inhibition, stopped-flow technique; assay type: biochemical
hCA XII = hCA XII (Homo sapiens, UniProt O43570); test: hCA XII inhibition, stopped-flow technique; assay type: biochemical; conditions: for Selectivity analysis hCA I/XII / Selectivity analysis hCA II/XII: SI; for Selectivity analysis hCA I/XII: hCA XII over hCA I (ratio of Ki); for Selectivity analysis hCA II/XII: hCA XII over hCA II (ratio of Ki)
hCA IX = hCA IX (Homo sapiens, UniProt Q16790); test: biochemical; conditions: for Ki: Ki hCA IX, stopped-flow technique, mean from 3 different assays; for Selectivity analysis hCA I/IX / Selectivity analysis hCA II/IX: SI; for Selectivity analysis hCA I/IX: hCA IX over hCA I (ratio of Ki); for Selectivity analysis hCA II/IX: hCA IX over hCA II (ratio of Ki)
hCA II = hCA II (Homo sapiens, UniProt P00918); test: hCA II inhibition, stopped-flow technique; assay type: biochemical

Sequence of hCA I (P00915 whole entry): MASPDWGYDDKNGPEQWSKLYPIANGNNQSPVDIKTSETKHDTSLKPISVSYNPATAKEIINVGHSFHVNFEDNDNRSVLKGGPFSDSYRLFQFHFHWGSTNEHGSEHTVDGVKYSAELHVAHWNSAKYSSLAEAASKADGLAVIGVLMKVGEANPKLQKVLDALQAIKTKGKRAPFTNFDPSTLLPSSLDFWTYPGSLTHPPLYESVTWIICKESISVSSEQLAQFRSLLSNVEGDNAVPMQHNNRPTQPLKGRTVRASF
Sequence of hCA XII (O43570 25-354): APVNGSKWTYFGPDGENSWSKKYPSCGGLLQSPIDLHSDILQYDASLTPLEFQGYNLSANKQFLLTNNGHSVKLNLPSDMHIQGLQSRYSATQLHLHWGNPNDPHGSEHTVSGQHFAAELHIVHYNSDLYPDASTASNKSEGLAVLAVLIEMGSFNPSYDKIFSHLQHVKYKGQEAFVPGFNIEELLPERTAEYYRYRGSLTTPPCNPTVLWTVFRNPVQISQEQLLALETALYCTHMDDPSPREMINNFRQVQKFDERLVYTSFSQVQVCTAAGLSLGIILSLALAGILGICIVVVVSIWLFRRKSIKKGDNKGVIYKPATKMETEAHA

| Ki (hCA I) | Ki (hCA XII) | Selectivity analysis hCA I/XII (hCA XII) | Selectivity analysis hCA II/XII (hCA XII) | Ki (hCA IX) | Selectivity analysis hCA I/IX (hCA IX) | Selectivity analysis hCA II/IX (hCA IX) | Ki (hCA II) | Compound |
| --- | --- | --- | --- | --- | --- | --- | --- | --- |
| 665 nM | 19.5 nM | 34.08 | 3.92 | 62.6 nM and 62.2 nM | 10.68 | 1.23 | 76.4 nM | NS(=O)(=O)c1ccc(CCn2c(SCC(=O)NN=Cc3ccc(O)cc3)nc3ccccc3c2=O)cc1 [Compound 7, 4-(2-(2-((2-(2-(4-Hydroxybenzylidene)hydrazineyl)-2-oxoethyl)thio)-4-oxoquinazolin-3(4H)-yl)ethyl)benzenesulfonamide] |
| 2310 nM | 85.2 nM | 27.09 | 3.90 | 184 nM | 12.52 | 1.80 | 333 nM | COc1cc(C(C)=NNC(=O)CSc2nc3ccccc3c(=O)n2CCc2ccc(S(N)(=O)=O)cc2)cc(OC)c1OC [Compound 22, 4-(2-(4-Oxo-2-((2-oxo-2-(2-(1-(3,4,5-trimethoxyphenyl)ethylidene)hydrazineyl)ethyl)thio)quinazolin-3(4H)-yl)ethyl)benzenesulfonamide] |
| 825 nM | 68.1 nM | 12.108 | 2.77 | 40.3 nM | 20.46 | 4.70 | 189 nM | COc1ccc(C(C)=NNC(=O)CSc2nc3ccccc3c(=O)n2CCc2ccc(S(N)(=O)=O)cc2)cc1OC [Compound 19, 4-(2-(2-((2-(2-(1-(3,4-Dimethoxyphenyl)ethylidene)hydrazineyl)-2-oxoethyl)thio)-4-oxoquinazolin-3(4H)-yl)ethyl)benzenesulfonamide] |
| 857 nM | 14.2 nM | 60.35 | 2.09 | 60.1 nM | 14.25 | 0.50 | 29.7 nM | COc1cc(C=NNC(=O)CSc2nc3ccccc3c(=O)n2CCc2ccc(S(N)(=O)=O)cc2)ccc1O [Compound 14, 4-(2-(2-((2-(2-(4-Hydroxy-3-methoxybenzylidene)hydrazineyl)-2-oxoethyl)thio)-4-oxoquinazolin-3(4H)-yl)ethyl)benzenesulfonamide] |
| 1980 nM | 91.5 nM | 21.66 | 7.27 | 124 nM | 16.05 | 5.38 | 665 nM | COc1cc(C=NNC(=O)CSc2nc3ccccc3c(=O)n2CCc2ccc(S(N)(=O)=O)cc2)cc(OC)c1OC [Compound 13, 4-(2-(4-Oxo-2-((2-Oxo-2-(2-(3,4,5-trimethoxybenzylidene)hydrazineyl)ethyl)thio)quinazolin-3(4H)-yl)ethyl)benzenesulfonamide] |
|  |  |  |  |  |  | 0.31 |  | NNC(=O)CSc1nc2ccccc2c(=O)n1CCc1ccc(S(N)(=O)=O)cc1 [Compound 3, 4-(2-(2-((2-hydrazineyl-2-oxoethyl)thio)-4-oxoquinazolin-3(4H)-yl)ethyl)benzenesulfonamide] |
| 692 nM | 52.8 nM | 13.11 | 1.91 | 16.5 nM | 41.95 | 6.10 | 101 nM | NS(=O)(=O)c1ccc(CCn2c(SCC(=O)NN=Cc3ccc4c(c3)OCO4)nc3ccccc3c2=O)cc1 [Compound 15, 4-(2-(2-((2-(2-(Benzo[d][1,3]dioxol-5-ylmethylene)hydrazineyl)-2-oxoethyl)thio)-4-oxoquinazolin-3(4H)-yl)ethyl)benzenesulfonamide] |
| 558 nM | 46.5 nM | 12.00 | 1.79 | 49.7 nM | 11.23 | 1.68 | 83.4 nM | COc1ccc(C=NNC(=O)CSc2nc3ccccc3c(=O)n2CCc2ccc(S(N)(=O)=O)cc2)cc1 [Compound 10, 4-(2-(2-((2-(2-(4-Methoxybenzylidene)hydrazineyl)-2-oxoethyl)thio)-4-oxoquinazolin-3(4H)-yl)ethyl)benzenesulfonamide] |
| 957 nM | 34.7 nM | 27.58 | 2.60 | 38.9 nM | 24.60 | 2.31 | 90.1 nM | NS(=O)(=O)c1ccc(CCn2c(SCC(=O)NN=Cc3cccc(O)c3)nc3ccccc3c2=O)cc1 [Compound 6, 4-(2-(2-((2-(2-(3-Hydroxybenzylidene)hydrazineyl)-2-oxoethyl)thio)-4-oxoquinazolin-3(4H)-yl)ethyl)benzenesulfonamide] |
| 1690 nM | 79.9 nM | 21.21 | 2.86 | 29.4 nM | 57.65 | 7.77 | 228 nM | COc1ccc(OC)c(C(C)=NNC(=O)CSc2nc3ccccc3c(=O)n2CCc2ccc(S(N)(=O)=O)cc2)c1 [Compound 20, 4-(2-(2-((2-(2-(1-(2,5-Dimethoxyphenyl)ethylidene)hydrazineyl)-2-oxoethyl)thio)-4-oxoquinazolin-3(4H)-yl)ethyl)benzenesulfonamide] |
| 2300 nM | 74.3 nM | 30.928 | 0.68 | 52.7 nM | 43.60 |  | 50.9 nM | COc1ccc(C=NNC(=O)CSc2nc3ccccc3c(=O)n2CCc2ccc(S(N)(=O)=O)cc2)c(OC)c1 [Compound 11, 4-(2-(2-((2-(2-(2,4-Dimethoxybenzylidene)hydrazineyl)-2-oxoethyl)thio)-4-oxoquinazolin-3(4H)-yl)ethyl)benzenesulfonamide] |
| 1160 nM | 58 nM | 19.95 | 2.25 | 52.7 nM | 21.95 | 2.48 | 131 nM | COc1cc(OC)cc(C(C)=NNC(=O)CSc2nc3ccccc3c(=O)n2CCc2ccc(S(N)(=O)=O)cc2)c1 [Compound 21, 4-(2-(2-((2-(2-(1-(3,5-Dimethoxyphenyl)ethylidene)hydrazineyl)-2-oxoethyl)thio)-4-oxoquinazolin-3(4H)-yl)ethyl)benzenesulfonamide] |
| 1060 nM | 69.2 nM | 15.289 | 3.75 | 88.3 nM | 11.98 | 2.94 | 260 nM | COc1ccc(C=NNC(=O)CSc2nc3ccccc3c(=O)n2CCc2ccc(S(N)(=O)=O)cc2)cc1OC [Compound 12, 4-(2-(2-((2-(2-(3,4-Dimethoxybenzylidene)hydrazineyl)-2-oxoethyl)thio)-4-oxoquinazolin-3(4H)-yl)ethyl)benzenesulfonamide] |

From paper PMC10682911 (Saudi Pharmaceutical Journal : SPJ, 2023)
